Experimental data as given in patent US8551951B2, “Pharmaceutical preparations and methods for inhibiting tumors” (Aenorasis SA Pharmaceuticals and Medical Devices, priority 2000, dated 2013).
Peptide text beside a SMILES is read from it.

Legend:
PC-3 cells [1] = experiment: Apoptosis assay by ELISA plus; assay type: cell-based, human; settings: for apoptotic cell death effect: 22.5 μM to 90 μM, 72 hours
Experimental: The three polypeptides (SEQ ID NO: 4, SEQ ID NO: 5 and SEQ ID NO 6) and native PSP94 used here as a positive control were tested in ELISA plus assay to measure cell death through apoptosis. Briefly, the ELISA plus assay is a sandwich enzyme immunoassay able to measure mono- and oligonucleosomes present in the cytoplasmic fraction of cell lysate using two antibodies, one directed against DNA and the other directed against histones. The apoptotic cell death is characterized by activation of endogenous endonucleases (e.g., calcium- and magnesium-dependant), which cleave double-stranded DNA at the most accessible internucleosomal linker region, generating mono- and oligonucleosomes. The enrichment of mono- and oligonucleosomes in the cytoplasm of the apoptotic cells is due to the fact that DNA degradation occurs several hours before plasma membrane breakdown.
Four thousand cells were seeded in Costar 96 well cell culture flat bottom plates in RPMI supplemented media containing 50 μg/ml of bovine serum albumin (BSA) and 0.1 μM FeSO4. The PC-3 cells were treated with various concentrations (22.5 μM to 90 μM) of polypeptides for 72 hours. Apoptosis assay was done as per manufacturer's instructions using the ApopTag kit (Boeringher Mannheim).

PC-3 cells [2] = experiment: DNA fragmentation assay (DNA ladder, apoptosis); assay type: cell-based, human; settings: for DNA laddering effect: various concentrations
In short: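 PC-3 cells were exposed for 72 h to the polypeptides at various concentrations, PCK3145 at 500 μg/ml in supplemented medium; untreated cells and doxorubicin served as controls. Isolated DNA was run on 1.2% agarose with ethidium bromide, and a DNA ladder was scored as apoptotic fragmentation.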

[3] = test system: human prostate cancer cells PC-3; experiment: MTS assay, growth inhibitory effect on PC-3 cells; assay type: cell-based; settings: for growth inhibition of PC-3 cells (FIG. 10): 72 hours
Excerpt: Cell proliferation was monitored on PC-3 cells using the MTS/PMS (phenazine methosulfate) kit (Promega), which primarily measures mitochondrial activity of live cells. The basic principle of this method involves the fact that the mitochondrial enzymes of the live cells metabolize the MTS/PMS dyes forming a brown colored precipitate which can be measured as optical density (OD) by absorption at 490 nm in a spectrophotometer. Therefore, the OD values are proportional to the number of living cells. In addition, monitoring of cell morphology was also performed. Cell morphology would be indicative of their health status. For example, viable cells would appear adherent and spread out whereas dead cells would be in suspension in the media and would appear granular and round.
PC-3 cells (ATCC, Lot AT06) used in these experiments were at a passage number lower or equal to 70 (n≧70). Cells were seeded in Costar 96 well cell culture flat bottom plates in RPMI supplemented media containing 50 μg/ml of bovine serum albumin (BSA) and 0.1 μM FeSO4. Peptide was diluted in the same media. Cells were continuously exposed to the polypeptides of the present invention for 72 hours without changing media. Native PSP94 or rHuPSP94 concentrated two fold were directly added to wells and diluted to 1× in order to minimize cell manipulation and avoid detachment.
Native PSP94, rHuPSP94, polypeptide 22-36 and PB111 polypeptide (scrambled polypeptide) were also included in this experiment as controls. Cell proliferation assay was performed on either PC-3 cells or normal fibroblasts (used here as control) using the MTS/PMS kit (Promega). Four thousand cells (FIGS. 9 and 10) or three thousand (FIG. 11) cells were seeded in Costar 96 well cell culture flat bottom plates in RPMI supplemented media containing 50 μg/ml of bovine serum albumin (BSA) and 0.1 μM FeSO4. In addition, monitoring of cell morphology was also performed.
This assay measures the mitochondrial activity of the live cells. The basic principle of this method involves the fact that the mitochondrial enzymes of the live cells metabolize the MTS/PMS dyes forming a brown colored precipitate which can be measured as optical density (OD) by absorption at 490 nm in a spectrophotometer. Therefore, the OD values are proportional to the number of living cells.
In addition, a visual observation of the cells was also done to check the cell morphology, which could also be indicative of cell growth. The following conditions for MTS assay were used: PC-3 (ATCC, Lot AT06), passage number n≧70, cell line adapted to grow in serum-free OPTI-MEM and in RPMI supplemented with BSA (50 μg/ml) and Ferrous Sulfate (0.1 μM), continuous exposure for up to 72 hours without changing media (i.e., adding PCK3145 at 2× concentration directly to wells and diluting it 1:2 to 1× to minimize cell manipulation and avoid detachment).

## C[C@@H](O)[C@H](NC(=O)[C@H](CCC(=O)O)NC(=O)[C@H](Cc1ccc(O)cc1)NC(=O)[C@H](CS)NC(=O)[C@@H](NC(=O)[C@H](CS)NC(=O)[C@@H](NC(=O)[C@H](CCC(=O)O)NC(=O)[C@H](CS)NC(=O)[C@H](CC(N)=O)NC(=O)[C@H](CC(=O)O)NC(=O)[C@@H](NC(=O)[C@H](CCC(N)=O)NC(=O)[C@H](Cc1c[nH]c2ccccc12)NC(=O)[C@@H](N)CCC(=O)O)[C@@H](C)O)[C@@H](C)O)[C@@H](C)O)C(=O)O [PCK3145, EWQTDNCETCTCYET] (H-EWQTDNCETCTCYET-OH; N-terminus and C-terminus assumed)
PC-3 cells [1]
  apoptotic cell death effect: dose dependent increase in the apoptotic cell death effect
PC-3 cells [1]; 90 μM
  apoptotic cell death, potency relative to the other polypeptides: more potent than the other polypeptides
PC-3 cells [2]; 22.5 μM
  DNA laddering effect (FIG. 7 lane 5): DNA laddering effect
PC-3 cells [2]; 45 μM
  DNA laddering effect (FIG. 7 lane 6): DNA laddering effect
PC-3 cells [2]; 500 μg/ml, 72 hours, supplemented media
  DNA fragmentation (FIG. 25): resulted in DNA fragmentation
PC-3 cells [2]; 72 hours
  DNA laddering effect: induced a DNA laddering effect characteristic of apoptosis
[3]; 0 to 400 μg/ml, tests repeated 5 times
  inhibitory effect on the growth of PC-3 cells: dose dependent inhibitory effect
[3]
  growth inhibition of PC-3 cells (FIG. 10): significant growth inhibition

## polypeptide 7-21: PSP94 derived synthetic polypeptide from the amino terminus end, SEQ ID NO: 4 (NEGVPGDSTRKCMDL; Polypeptide 7-21)
PC-3 cells [1]
  apoptotic cell death effect: dose dependent increase in the apoptotic cell death effect
PC-3 cells [2]; 72 hours
  DNA laddering effect: induced a DNA laddering effect characteristic of apoptosis
[3]
  growth inhibition of PC-3 cells (FIG. 10): significant growth inhibition
